According to US5866684A, “Peptidyl inhibitors of viral proteases” (Hoffmann-La Roche Inc., priority 1996, dated 1999):
pIC50: −log10 of the molar value. Numbered stars: 1 amine (or outer) side, 2 acyl side, 3 side chain; on linkers, the order of the positions; unused ones are H or OH. Square brackets hold non-standard residues; d marks the D form. Peptide text beside a SMILES is read from it. X1 = CC(F)(F)C[C@H](N[*:1])C(=O)[*:2]; Phe(2-Me) = Cc1ccccc1C[C@H](N)C(=O)O; Suc = O=C(CCC(=O)[*:2])[*:1]; Tle = CC(C)(C)[C@H](N)C(=O)O

These compounds were tested against T1, HCV proteinase (Hepatitis C virus genotype 1b, UniProt P26662) (assay: HCV proteinase inhibition: cleavage of quenched fluorescence substrate NS4A/B.F peptide by enzyme MBP-NS3"Gly12-NS4A). Conditions: enzyme MBP-NS3"Gly12-NS4A 1 μg in 200 μl, pH 8.5, 15 minutes preincubation, NS4A/B.F peptide 10 μM, read after a further 10 minutes.
T1 construct: Regions encompassing the NS3 proteinase domain (amino acids 1007-1219); made in house; host or cells: E. coli strain MC1061
T1 sequence (P26662 1007-1219): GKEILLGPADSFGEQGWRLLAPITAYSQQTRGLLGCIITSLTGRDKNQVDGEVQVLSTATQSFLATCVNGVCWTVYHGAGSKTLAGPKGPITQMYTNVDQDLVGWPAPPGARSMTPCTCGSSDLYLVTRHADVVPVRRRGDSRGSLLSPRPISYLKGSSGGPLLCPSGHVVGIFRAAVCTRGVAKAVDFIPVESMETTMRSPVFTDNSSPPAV
Format: biochemical
From the text: As mentioned earlier, the compounds of formula I and salts of acidic compounds of formula I with bases are inhibitors of proteases of viral origin.
The nucleotide sequence of this expression plasmid is given in FIGS. 1a-j appended hereto and the amino acid sequence of its expression product is given in FIG. 2 appended hereto. It is based on the pMAL®-c2 vector supplied by New England Biolabs, Inc. (32 Tozer Rd., Beverly, Mass., USA). The principle of the construction was to create an in-frame fusion of the maltose binding protein (MBP) gene supplied by the pMAL-c2 vector, and sequences of the HCV genome necessary for NS3 proteinase activity. These HCV sequences were inserted between the EcoRI and HindIII sites of the pMAL-c2 polylinker (positions 2695 and 3556 respectively of the sequence given in FIGS. 1a-j).
HCV sequences were derived from plasmids pDS 3348-4045 and pBFK 3348-6062, described by Bartenschlager et al, 1993 (Journal of Virology, 67, 3835-3844). Regions encompassing the NS3 proteinase domain (amino acids 1007-1219) and the NS4A domain (amino acids 1658-1711) were isolated and inserted into the pMAL-c2 vector using standard recombinant DNA techniques, including the PCR amplification of required sequences. Between the NS3 and NS4A domains, a linker region was constructed using synthetic oligonucleotides (positions 3343-3390; amino acids 606-621). The resulting plasmid was used to transform E. coli (strain MC1061) cells and expression of the MBP-NS3"Gly12 -NS4A enzyme was induced as described below.
E. coli (strain MC1061) cells transformed with the foregoing plasmid were grown in Luria broth containing ampicillin (100 μg/ml) at 37° C. The cells were grown until an optical density of 0.5 at 600 nm had been reached and enzyme expression was then induced by adding 1 mM isopropylthiogalactoside and incubating at 37° C. for a further 3 hours. The cells were harvested by centrifugation and stored at -80° C.
A pellet from 4 l of bacterial culture was resuspended in E.coli lysis buffer (20 mM Tris HCl, pH 7.5, containing 150 mM NaCl, 1 mM EDTA and 10 mM dithiothreitol) and cell lysis was achieved by two passages through a French Pressure cell. The clear supernatant obtained by centrifugation (18000 g, 30 minutes) was then applied to an amylose resin column (4×1 cm) (New England Biolabs) which had been equilibrated with ice-cold 50 mM Tris HCl, pH 8.5, containing 200 mM NaCl, 1 mM dithiothreitol and 5% glycerol. The column was washed thoroughly with the equilibration buffer and bound protein was eluted using the equilibration buffer containing 10 mM maltose. Fractions of 1 ml were collected, with fractions containing the enzyme being pooled and stored at -80° C. Enzyme concentration was assayed by the method of M. B. Bradford, Analytical Biochemistry, 1976, vol. 72, p.248.
Compounds of formula I (routinely prepared as stock solutions in DMSO) were assayed for their ability to inhibit the cleavage of a quenched fluorescence substrate [NS4A/B.F peptide (N-[4-[4-(dimethylamino)phenylazo]benzoyl]-L-α-aspartyl-L-α-glutamyl-L-methionyl-L-(x-glutamyl-L-α-glutamyl-L-cysteinyl-L-alanyl-L- seryl-L-histidyl-N5-[2-(5-sulpho-1-naphthylamino)ethyl]-L-glutaminamide); Wilkinson et al, Society for General Microbiology Meeting, University of Warwick, England, 28 Mar. 1996] based on the NS4A/4B cleavage site by enzyme MBP-NS3"Gly12 -NS4A in microtitre plates as follows:
The enzyme (1 μg) was added to 200 μl final volume of a mixture containing 50 mM Tris HCl, pH 8.5, with 1 mM dithiothreitol, 0.1% Triton X-100 and the test compound of formula I. The resulting mixture was incubated at room temperature for 15 minutes prior to starting the reaction by the addition of NS4A/B.F peptide to a final concentration of 10 μM. The progress of the reaction was evaluated with a Perseptive Biosystems Cytofluor II using an excitation wavelenth of 360 nm and an emission wavelength of 530 nm. […]

How did the pIC50 turn out when `C=CCC(NC(=O)[C@H](CC(C)C)NC(=O)[C@@H](NC(=O)[C@H](Cc1ccccc1C)NC(=O)[C@H](CCC(=O)O)NC(=O)[C@H](CC(=O)O)NC(=O)CCC(=O)O)C(C)(C)C)B(O)O` (mixture of isomers) [D, 1(RS)-[[N-[N-[N-[N-[N-(3-carboxypropionyl)-L-α-aspartyl]-L-α-glutamyl]-2-methyl-L-phenylalanyl]-3-methyl-L-valyl]-L-leucyl]amino]-3-butenylboronic acid] was run?
Its pIC50 is 7.47.

How did the pIC50 turn out when `CCCC(NC(=O)[C@H](CC(C)C)NC(=O)[C@@H](NC(=O)[C@H](Cc1ccccc1C)NC(=O)[C@H](CCC(=O)O)NC(=O)[C@H](CC(=O)O)NC(=O)CCC(=O)O)C(C)(C)C)B(O)O` (mixture of isomers) [F, 1(RS)-[[N-[N-[N-[N-[N-(3-carboxypropionyl)-L-α-aspartyl]-L-α-glutamyl]-2-methyl-L-phenylalanyl]-3-methyl-L-valyl]-L-leucyl]amino]butylboronic acid] was run?
The pIC50 was 6.80.

How did the pIC50 turn out when `Cc1ccccc1C[C@H](NC(=O)[C@H](CCC(=O)O)NC(=O)[C@H](CC(=O)O)NC(=O)CCC(=O)O)C(=O)N[C@H](C(=O)N[C@@H](CC(C)C)C(=O)N[C@H](C=O)CC(C)(F)F)C(C)(C)C` [B, 2(S)-[[N-[N-[N-[N-[N-(3-carboxypropionyl)-L-α-aspartyl]-L-α-glutamyl]-2-methyl-L-phenylalanyl]-3-methyl-L-valyl]-L-leucyl]amino]-4,4-difluorovaleraldehyde] (Suc-DE[Phe(2-Me)][Tle]L[X1]-aldehyde) was run?
The pIC50 was 7.15.

How did the pIC50 turn out when `CCC(NC(=O)[C@H](CC(C)C)NC(=O)[C@@H](NC(=O)[C@H](Cc1ccccc1C)NC(=O)[C@H](CCC(=O)O)NC(=O)[C@H](CC(=O)O)NC(=O)CCC(=O)O)C(C)(C)C)B(O)O` (mixture of isomers) [E, 1(RS)-[[N-[N-[N-[N-[N-(3-carboxypropionyl)-L-α-aspartyl]-L-α-glutamyl]-2-methyl-L-phenylalanyl]-3-methyl-L-valyl]-L-leucyl]amino]propylboronic acid] was run?
Its pIC50 is 7.42.

`C=CCC(C=O)NC(=O)[C@H](CC(C)C)NC(=O)[C@@H](NC(=O)[C@H](Cc1ccccc1C)NC(=O)[C@H](CCC(=O)O)NC(=O)[C@H](CC(=O)O)NC(=O)CCC(=O)O)C(C)(C)C` (mixture of isomers) [A, 2(RS)-[[N-[N-[N-[N-[N-(3-carboxypropionyl)-L-α-aspartyl]-L-α-glutamyl]-2-methyl-L-phenylalanyl]-3-methyl-L-valyl]-L-leucyl]amino]-4-pentenaldehyde] was tested. Which pIC50 did it give?
Its pIC50 is 7.05.

`Cc1ccccc1C[C@H](NC(=O)[C@H](CCC(=O)O)NC(=O)[C@H](CC(=O)O)NC(=O)CCC(=O)O)C(=O)N[C@H](C(=O)N[C@@H](CC(C)C)C(=O)NC(C=O)CC(F)(F)F)C(C)(C)C` (mixture of isomers) [C, 2(RS)-[[N-[N-[N-[N-[N-(3-carboxypropionyl)-L-α-aspartyl]-L-α-glutamyl]-2-methyl-L-phenylalanyl]-3-methyl-L-valyl]-L-leucyl]amino]-4,4,4-trifluorobutyraldehyde] was tested. Which pIC50 did it give?
The pIC50 was 7.19.
